Experiments:
[1] = tested on: control sera (pooled serum of ten healthy LUMC hospital workers; commercial negative donor pooled serum from the Dutch bloodbank); format: binding, human; parameters: Binding of Control serum LUMC to linear peptides / Binding of Control serum Blood-bank to linear peptides / Binding of Control serum LUMC to looped peptides / Binding of Control Serum Blood-Bank to Looped peptides / Binding of Control serum LUMC to linear peptides of the protein M of SARS-CoV Urbani / Binding of Control serum Blood-bank to linear peptides of the protein M of SARS-CoV Urbani / Binding of Control serum LUMC to looped peptides of the protein M of SARS-CoV Urbani / Binding of Control Serum Blood-Bank to Looped peptides of the protein M of SARS-CoV Urbani: unit not given here
[2] = tested on: rabbit serum obtained by immunizing a rabbit with the SARS-CoV strain Frankfurt 1; format: binding; parameters: Binding of a rabbit serum to linear peptides / Binding of a rabbit serum to looped peptides / Rabbit serum linear peptides / Rabbit serum looped peptides / Binding of a rabbit serum to linear peptides of protein N of SARS-CoV Urbani (Rabbit serum linear peptides) / Binding of a rabbit serum to looped/cyclic peptides of protein N of SARS-CoV Urbani (Rabbit serum looped peptides): unit not given here
[3] = tested on: antibodies in sera from SARS patients (sera 1a, 1b, 2, 6, 37, 62, London, SARS-yellow, SARS-green); format: binding, human; parameters: Binding of serum 6 to linear peptides of protein X1 of SARS-CoV Urbani / Binding of serum 37 to linear peptides of protein X1 of SARS-CoV Urbani / Binding of serum 6 to looped/cyclic peptide (PEPSCAN-ELISA) / Binding of serum 37 to looped/cyclic peptide (PEPSCAN-ELISA) / Binding of serum 37 to looped/cyclic peptides of protein X1 of SARS-CoV Urbani / Binding of serum 6 to linear peptides of protein X2 / Binding of serum 37 to linear peptides of protein X2 / Binding of serum 37 to looped/cyclic peptides of protein X2 of SARS-CoV Urbani / Binding of serum 6 to linear peptides of protein M of SARS-CoV Urbani / Binding of serum 37 to linear peptides of protein M of SARS-CoV Urbani / Binding of serum 6 to looped/cyclic peptides of protein M of SARS-CoV Urbani / Binding of serum 37 to looped/cyclic peptides of protein M of SARS-CoV Urbani / Binding of serum 6 to linear peptides of protein X3 of SARS-CoV Urbani / Binding of serum 37 to linear peptides of protein X3 of SARS-CoV Urbani / Binding of serum 37 to looped/cyclic peptides of protein X3 of SARS-CoV Urbani / Binding of serum 6 to linear peptides of protein X4 of SARS-CoV Urbani / Binding of serum 37 to linear peptides of protein X4 of SARS-CoV Urbani / Binding of serum 37 to looped/cyclic peptides of protein X4 of SARS-CoV Urbani / Binding of serum 6 to linear peptides of protein X5 of SARS-CoV Urbani / Binding of serum 37 to linear peptides of protein X5 of SARS-CoV Urbani / Binding of serum 37 to looped/cyclic peptides of protein X5 of SARS-CoV Urbani / Binding of serum 6 to linear peptides of protein N of SARS-CoV Urbani / Binding of serum 37 to linear peptides of protein N of SARS-CoV Urbani / Binding of serum 6 to linear peptide (PEPSCAN-ELISA) / Binding of serum 1a to looped/cyclic peptides of protein N of SARS-CoV Urbani / Binding of serum 1b to looped/cyclic peptides of protein N of SARS-CoV Urbani / Binding of serum 2 to looped/cyclic peptides of protein N of SARS-CoV Urbani / Binding of serum 6 to looped/cyclic peptides of protein N of SARS-CoV Urbani / Binding of serum 37 to looped/cyclic peptides of protein N of SARS-CoV Urbani / Binding of serum 62 to looped/cyclic peptides of protein N of SARS-CoV Urbani / Binding of serum London to looped/cyclic peptides of protein N of SARS-CoV Urbani / Binding of serum SARS-green to looped/cyclic peptides of protein N of SARS-CoV Urbani: unit not given here

## TLACFVLAAVYRINW
[1]
  Binding of Control Serum Blood-Bank to Looped peptides of the protein M of SARS-CoV Urbani: 0.8
  Binding of Control serum Blood-bank to linear peptides of the protein M of SARS-CoV Urbani: 0.5
  Binding of Control serum LUMC to linear peptides of the protein M of SARS-CoV Urbani: 0.2
  Binding of Control serum LUMC to looped peptides of the protein M of SARS-CoV Urbani: 0.7
[2]
  Rabbit serum linear peptides: 0.5
  Rabbit serum looped peptides: 0.1
[3]
  Binding of serum 1a to linear peptides of protein M of SARS-CoV Urbani: 0.7
  Binding of serum 1a to looped/cyclic peptides of protein M of SARS-CoV Urbani: 0.7
  Binding of serum 1b to linear peptides of protein M of SARS-CoV Urbani: 0.5
  Binding of serum 1b to looped/cyclic peptides of protein M of SARS-CoV Urbani: 0.5
  Binding of serum 2 to linear peptides of protein M of SARS-CoV Urbani: 0.5
  Binding of serum 2 to looped/cyclic peptides of protein M of SARS-CoV Urbani: 0.6
  Binding of serum 6 to linear peptides of protein M of SARS-CoV Urbani: 0.3
  Binding of serum 6 to looped/cyclic peptides of protein M of SARS-CoV Urbani: 0.7
  Binding of serum 37 to linear peptides of protein M of SARS-CoV Urbani: 0.8
  Binding of serum 37 to looped/cyclic peptides of protein M of SARS-CoV Urbani: 0.6
  Binding of serum 62 to linear peptides of protein M of SARS-CoV Urbani: 0.8
  Binding of serum 62 to looped/cyclic peptides of protein M of SARS-CoV Urbani: 0.6
  Binding of serum London to linear peptides of protein M of SARS-CoV Urbani: 0.3
  Binding of serum London to looped/cyclic peptides of protein M of SARS-CoV Urbani: 0.3
  Binding of serum SARS-green to linear peptides of protein M of SARS-CoV Urbani: 0.3
  Binding of serum SARS-green to looped/cyclic peptides of protein M of SARS-CoV Urbani: 0.2
  Binding of serum SARS-yellow to linear peptides of protein M of SARS-CoV Urbani: 0.0
  Binding of serum SARS-yellow to looped/cyclic peptides of protein M of SARS-CoV Urbani: 0.5

## TLIVFTSCELYHYQE
[1]
  Binding of Control Serum Blood-Bank to Looped peptides: 0.7
  Binding of Control serum Blood-bank to linear peptides: 0.7
  Binding of Control serum LUMC to linear peptides: 0.8
  Binding of Control serum LUMC to looped peptides: 1.0
[2]
  Rabbit serum linear peptides: 0.5
  Rabbit serum looped peptides: 0.8
[3]
  Binding of serum 1a to linear peptides of protein X4 of SARS-CoV Urbani: 0.8
  Binding of serum 1a to looped/cyclic peptides of protein X4 of SARS-CoV Urbani: 0.8
  Binding of serum 1b to linear peptides of protein X4 of SARS-CoV Urbani: 0.8
  Binding of serum 1b to looped/cyclic peptides of protein X4 of SARS-CoV Urbani: 0.8
  Binding of serum 2 to linear peptides of protein X4 of SARS-CoV Urbani: 0.5
  Binding of serum 2 to looped/cyclic peptides of protein X4 of SARS-CoV Urbani: 0.8
  Binding of serum 6 to linear peptides of protein X4 of SARS-CoV Urbani: 0.6
  Binding of serum 6 to looped/cyclic peptides of protein X4 of SARS-CoV Urbani: 0.6
  Binding of serum 37 to linear peptides of protein X4 of SARS-CoV Urbani: 0.9
  Binding of serum 37 to looped/cyclic peptides of protein X4 of SARS-CoV Urbani: 0.9
  Binding of serum 62 to linear peptides of protein X4 of SARS-CoV Urbani: 0.9
  Binding of serum 62 to looped/cyclic peptides of protein X4 of SARS-CoV Urbani: 0.8
  Binding of serum London to linear peptides of protein X4 of SARS-CoV Urbani: 0.8
  Binding of serum London to looped/cyclic peptides of protein X4 of SARS-CoV Urbani: 0.3
  Binding of serum SARS-green to linear peptides of protein X4 of SARS-CoV Urbani: 1.1
  Binding of serum SARS-green to looped/cyclic peptides of protein X4 of SARS-CoV Urbani: 1.0
  Binding of serum SARS-yellow to linear peptides of protein X4 of SARS-CoV Urbani: 0.6
  Binding of serum SARS-yellow to looped/cyclic peptides of protein X4 of SARS-CoV Urbani: 0.9

## TLVLKMLHSSSLTSL
[1]
  Binding of Control Serum Blood-Bank to Looped peptides: 0.9
  Binding of Control serum Blood-bank to linear peptides: 0.9
  Binding of Control serum LUMC to linear peptides: 0.5
  Binding of Control serum LUMC to looped peptides: 0.7
[2]
  Binding of a rabbit serum to linear peptides: 0.2
  Binding of a rabbit serum to looped peptides: 0.4
[3]
  Binding of serum 1a to linear peptides of protein X2: 0.7
  Binding of serum 1a to looped/cyclic peptides of protein X2 of SARS-CoV Urbani: 0.7
  Binding of serum 1b to linear peptides of protein X2: 0.5
  Binding of serum 1b to looped/cyclic peptides of protein X2 of SARS-CoV Urbani: 0.6
  Binding of serum 2 to linear peptides of protein X2: 0.4
  Binding of serum 2 to looped/cyclic peptides of protein X2 of SARS-CoV Urbani: 0.5
  Binding of serum 6 to linear peptides of protein X2: 0.4
  Binding of serum 6 to looped/cyclic peptides of protein X2 of SARS-CoV Urbani: 1.0
  Binding of serum 37 to linear peptides of protein X2: 0.5
  Binding of serum 37 to looped/cyclic peptides of protein X2 of SARS-CoV Urbani: 0.5
  Binding of serum 62 to linear peptides of protein X2: 0.6
  Binding of serum 62 to looped/cyclic peptides of protein X2 of SARS-CoV Urbani: 0.7
  Binding of serum London to linear peptides of protein X2: 0.4
  Binding of serum London to looped/cyclic peptides of protein X2 of SARS-CoV Urbani: 1.0
  Binding of serum SARS-green to linear peptides of protein X2: 0.4
  Binding of serum SARS-green to looped/cyclic peptides of protein X2 of SARS-CoV Urbani: 0.3
  Binding of serum SARS-yellow to linear peptides of protein X2: 0.4
  Binding of serum SARS-yellow to looped/cyclic peptides of protein X2 of SARS-CoV Urbani: 0.5

## TMSLYMAISPKFTTS
[1]
  Binding of Control Serum Blood-Bank to Looped peptides: 0.8
  Binding of Control serum Blood-bank to linear peptides: 0.5
  Binding of Control serum LUMC to linear peptides: 0.7
  Binding of Control serum LUMC to looped peptides: 0.8
[2]
  Binding of a rabbit serum to linear peptides: 0.2
  Binding of a rabbit serum to looped peptides: 0.5
[3]
  Binding of serum 1a to linear peptides of protein X2: 0.5
  Binding of serum 1a to looped/cyclic peptides of protein X2 of SARS-CoV Urbani: 0.6
  Binding of serum 1b to linear peptides of protein X2: 0.0
  Binding of serum 1b to looped/cyclic peptides of protein X2 of SARS-CoV Urbani: 0.6
  Binding of serum 2 to linear peptides of protein X2: 0.4
  Binding of serum 2 to looped/cyclic peptides of protein X2 of SARS-CoV Urbani: 0.4
  Binding of serum 6 to linear peptides of protein X2: 0.3
  Binding of serum 6 to looped/cyclic peptides of protein X2 of SARS-CoV Urbani: 0.4
  Binding of serum 37 to linear peptides of protein X2: 0.2
  Binding of serum 37 to looped/cyclic peptides of protein X2 of SARS-CoV Urbani: 0.5
  Binding of serum 62 to linear peptides of protein X2: 0.7
  Binding of serum 62 to looped/cyclic peptides of protein X2 of SARS-CoV Urbani: 0.7
  Binding of serum London to linear peptides of protein X2: 0.4
  Binding of serum London to looped/cyclic peptides of protein X2 of SARS-CoV Urbani: 0.2
  Binding of serum SARS-green to linear peptides of protein X2: 0.5
  Binding of serum SARS-green to looped/cyclic peptides of protein X2 of SARS-CoV Urbani: 0.4
  Binding of serum SARS-yellow to linear peptides of protein X2: 0.0
  Binding of serum SARS-yellow to looped/cyclic peptides of protein X2 of SARS-CoV Urbani: 0.6

## TMTTVYHITVSQIQL
[1]
  Binding of Control Serum Blood-Bank to Looped peptides: 0.6
  Binding of Control serum Blood-bank to linear peptides: 0.6
  Binding of Control serum LUMC to linear peptides: 0.8
  Binding of Control serum LUMC to looped peptides: 0.5
[2]
  Binding of a rabbit serum to linear peptides: 0.7
  Binding of a rabbit serum to looped peptides: 0.4
[3]
  Binding of serum 1a to linear peptides of protein X2: 0.6
  Binding of serum 1a to looped/cyclic peptides of protein X2 of SARS-CoV Urbani: 0.4
  Binding of serum 1b to linear peptides of protein X2: 0.2
  Binding of serum 1b to looped/cyclic peptides of protein X2 of SARS-CoV Urbani: 0.4
  Binding of serum 2 to linear peptides of protein X2: 0.4
  Binding of serum 2 to looped/cyclic peptides of protein X2 of SARS-CoV Urbani: 0.3
  Binding of serum 6 to linear peptides of protein X2: 0.5
  Binding of serum 6 to looped/cyclic peptides of protein X2 of SARS-CoV Urbani: 0.2
  Binding of serum 37 to linear peptides of protein X2: 0.7
  Binding of serum 37 to looped/cyclic peptides of protein X2 of SARS-CoV Urbani: 0.4
  Binding of serum 62 to linear peptides of protein X2: 0.3
  Binding of serum 62 to looped/cyclic peptides of protein X2 of SARS-CoV Urbani: 0.5
  Binding of serum London to linear peptides of protein X2: 0.4
  Binding of serum London to looped/cyclic peptides of protein X2 of SARS-CoV Urbani: 0.2
  Binding of serum SARS-green to linear peptides of protein X2: 0.2
  Binding of serum SARS-green to looped/cyclic peptides of protein X2 of SARS-CoV Urbani: 0.3
  Binding of serum SARS-yellow to linear peptides of protein X2: 0.7
  Binding of serum SARS-yellow to looped/cyclic peptides of protein X2 of SARS-CoV Urbani: 0.3

From US20070128217A1 (priority 2003, published 2007)
